According to patent US20250249056A1, “CANCER THERAPIES COMPRISING A NUCLEAR EXPORT INHIBITOR AND AN ONCOLYTIC VIRUS” (priority 2022, published 2025):
“Also recorded” adds a separate entry of the source.

How the values were obtained:
[1] = test system: PANC-1, Colo205, HT29, and MDMB435 cells; assay: Cell viability assay (MTS); format: cell-based, human
Experimental: To further assess the inhibition of cell proliferation, and investigate if cell death is enhanced, cell viability assays were performed using an MTS assay to detect metabolic activity in active cells. For this assay, PANC-1 (FIG. 5A through FIG. 5D), Colo205 (FIG. 5E through FIG. 5H), HT29, and MDMB435 cells were treated with different concentrations of selinexor, infected with MYXB at different MOIs, or treated with a combination of selinexor and MYXB, and cell viability was measured at different time points.
Cell Viability Assay: To assess the viability of different human cancer cells after selinexor treatment or MYXV infection, 10,000 cells were seeded into each well of a 96-well plate. The next day, cells were treated with different concentrations of selinexor, infected with different MOIs of MYXV, or treated with different concentrations of selinexor for 1 hour followed by infection with different MOIs of MYXV. A minimum of four wells were used for each treatment condition, and untreated cells (mock) served as controls. Cell viability was assessed at 24, 48, 72, and 96 hours using an MTS assay.

[2] = test system: MYXV; assay: Viral replication assay: progeny virus titration on permissive rabbit RK13 cells; format: cell-based, myxoma virus; settings: PANC-1, Colo205, and MDA-MB435; selinexor; 24, 48, 72 h
Experimental: Viral titers in different human cancer cell lines were determined using a viral replication assay. Cells were seeded in 24-well plates (2×10^5 cells/well). The next day, the cells were treated with different concentrations of leptomycin B (LMB) or selinexor diluted in DMEM for 1 hour. MYXV was added to the cells and incubated for one hour at 37° C. After 1 hour, the unbound viruses were washed away using DMEM, and DMEM with LMB or selinexor was added to the cells. Cells were harvested in DMEM without LMB or selinexor at the indicated time points. After harvesting the cells, they were stored at −80° C. until processing. Samples were subjected to three freeze/thaw cycles and one-minute sonification to lyse cells and release the viral particles. Afterwards, different dilutions were prepared in DMEM and plated on rabbit RK13 and foci were counted after 48 hours using a fluorescent microscope. All assays and dilutions were performed in triplicate.

O=C(/C=C\n1cnc(-c2cc(C(F)(F)F)cc(C(F)(F)F)c2)n1)NNc1cnccn1 [selinexor]
cell viability ([1]; selinexor 0.5 μM or 1 μM, over time, all cells tested): 50%
cell viability ([1]; selinexor alone 0.1 μM or 0.05 μM): no effect on cell viability; also recorded: almost no effect
increase in virus production compared to infection with MYXV alone [2]: 10-100 fold
